Laboratory results as given in PubChem BioAssay (NCI).
Values joined by “and” are separate entries in the source; they are usually repeats but may differ in a detail not shown here. Equal entries are not always repeated.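 Grown in 96-well plates, cells were treated for 48 hours with each compound at five concentrations. Insufficient inhibition: endpoint recorded as highest concentration tested. GI50 = concentration required for 50% inhibition of growth. TGI marks complete inhibition of growth.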

Columns and labels:
Assay in all cases: DTP human tumour cell line panel, 48 h
SW-620 colon = system: SW-620 colon
OVCAR-3 ovarian = system: OVCAR-3 ovarian
CCRF-CEM leukemia = system: CCRF-CEM leukemia
M14 melanoma = system: M14 melanoma
RXF 393 renal = system: RXF 393 renal
MALME-3M melanoma = system: MALME-3M melanoma
HT29 colon = system: HT29 colon
SNB-19 CNS = system: SNB-19 CNS
HOP-92 NSCLC = system: HOP-92 NSCLC
SF-295 CNS = system: SF-295 CNS

| Compound | GI50 (SW-620 colon) | TGI (SW-620 colon) | GI50 (OVCAR-3 ovarian) | TGI (OVCAR-3 ovarian) | GI50 (CCRF-CEM leukemia) | TGI (CCRF-CEM leukemia) | GI50 (M14 melanoma) | TGI (M14 melanoma) | GI50 (RXF 393 renal) | TGI (RXF 393 renal) | GI50 (MALME-3M melanoma) | TGI (MALME-3M melanoma) | GI50 (HT29 colon) | TGI (HT29 colon) | GI50 (SNB-19 CNS) | TGI (SNB-19 CNS) | GI50 (HOP-92 NSCLC) | TGI (HOP-92 NSCLC) | GI50 (SF-295 CNS) | TGI (SF-295 CNS) |
| --- | --- | --- | --- | --- | --- | --- | --- | --- | --- | --- | --- | --- | --- | --- | --- | --- | --- | --- | --- | --- |
| O=C(CSc1nc2ccccc2nc1-c1ccccc1)Nc1ccc(Cl)cc1 | 38.9 µM | > 100 µM | 13.1 µM | 40.3 µM | > 100 µM | > 100 µM | 23.7 µM | > 100 µM | 19.1 µM | 62.7 µM | 27.2 µM | 78 µM | 25.1 µM | > 100 µM | 35.9 µM | > 100 µM | 15.4 µM | 63.5 µM | 17.5 µM | 85.1 µM |
| CC(=O)[O-].CC(=O)[O-].O=C(N/N=C/c1cc(Cl)cc(Cl)c1O)c1ccncc1.[Ni+2] | – | 83.5 µM | – | 80.8 µM | – | > 100 µM | – | > 100 µM | – | > 100 µM | – | > 100 µM | – | > 100 µM | – | > 100 µM | 17.1 µM | 76.9 µM | – | 67.2 µM |
| CC1=C(C(=O)Nc2ccccc2C)C(c2ccc(C3C(C(=O)Nc4ccccc4C)=C(C)NC(C)=C3C(=O)Nc3ccccc3C)cc2)C(C(=O)Nc2ccccc2C)=C(C)N1 | – | 6.3 µM | – | 18.5 µM | – | 7.82 µM | – | 8.23 µM | – | 17.6 µM | – | 6.13 µM | – | 4.62 µM | – | 29.4 µM | – | 20.6 µM | – | 17.1 µM |
| COc1cc(-c2nc(NC(C)=O)sc2-c2ccnc(NCCNS(=O)(=O)c3ccccc3)n2)ccc1Cl | 4.37 µM | > 100 µM | 3.09 µM | 32.6 µM | 4.03 µM | > 100 µM | 2.09 µM | 5.42 µM | 2.74 µM | 7.53 µM | 3.8 µM | > 100 µM | 2.94 µM | > 100 µM | 6.51 µM | > 100 µM | 2.52 µM | 72 µM | 2.74 µM | 13.4 µM |
| CC1=C(C(=O)Nc2ccccc2)C(c2ccc([N+](=O)[O-])cc2)C(C(=O)Nc2ccccc2)=C(C)N1 | – | 38.5 µM | – | > 100 µM | – | 39.8 µM | – | 41.8 µM | – | 46.2 µM | – | > 100 µM | – | 41.3 µM | – | 32 µM | – | 60.9 µM | – | > 100 µM |
| Cc1nnc(N=Nc2c(O)[nH]c3c(Cl)cc(Cl)cc23)n1N | – | > 100 µM | – | > 100 µM | – | > 100 µM | – | > 100 µM | – | > 100 µM | – | > 100 µM | – | > 100 µM | – | > 100 µM | – | > 100 µM | – | > 100 µM |
| CNC(=O)c1c(NC(=O)c2ccc(C(F)(F)F)cc2)sc2c1CCC(=O)C2 | 0.235 µM | 1.64 µM | 0.812 µM | 3.29 µM | 0.155 µM | – | 0.508 µM | 3.77 µM | 0.41 µM | 2.15 µM | 1.11 µM | 3.88 µM | 0.555 µM | 5.27 µM | 0.735 µM | > 65.9 µM | 0.256 µM | 2.15 µM | 0.821 µM | 2.97 µM |
| Cc1cccc(-c2nn3c(c2-c2ccnc4ccc(C(N)=O)cc24)CCC3)n1 | > 100 µM | > 100 µM | > 100 µM | > 100 µM | > 100 µM | > 100 µM | > 91.9 µM | > 100 µM | > 100 µM | > 100 µM | 57.2 µM | > 100 µM | 52.5 µM | > 100 µM | > 100 µM | > 100 µM | > 100 µM | > 100 µM | > 100 µM | > 100 µM |
| COc1cc2c3c(c4ccc(OC)c(OC)c4c2cc1OC)CN1CCC[C@@H]1C3 | – | > 47.7 µM | – | 16.6 µM | – | 0.651 µM | – | 2.56 µM | – | 0.29 µM | – | 0.509 µM | – | 0.593 µM | – | 0.0826 µM | – | 0.616 µM | – | 6.39 µM |
| Cc1ncc(C(=O)Nc2ccc(CN3CCN(C)CC3)c(C(F)(F)F)c2)cc1C#Cc1cnc(N)c2cnccc12 | 0.0649 µM | 1.39 µM | 0.181 µM | 5.98 µM | 0.0906 µM | 3.46 µM | 0.0225 µM | 0.17 µM | 0.0706 µM | 0.399 µM | < 0.0113 µM | 0.042 µM | 0.021 µM | 1.19 µM | 0.684 µM | 17.6 µM | 0.0299 µM | 0.258 µM | 0.309 µM | 14.8 µM |
| CC1=CC(=O)CC(C)(C)C1(O)/C=C/C(C)=C/C(=O)O (configuration not stated) | – | > 100 µM | – | > 100 µM | – | > 100 µM | – | > 100 µM | – | > 100 µM | – | > 100 µM | – | > 100 µM | – | > 100 µM | – | > 100 µM | – | > 100 µM |
| C/C1=C/C(=O)O[C@@H]2C[C@@H](CC[C@H](C)/C=C\C=C\CC1)O[C@@](O)([C@@H]1CSC(=O)N1CO)C2 | 12.6 µM | 30 µM | 0.122 µM | 0.512 µM | 0.0872 µM | > 41.4 µM | 0.227 µM | 21.2 µM | 0.0367 µM | 0.276 µM | 0.0962 µM | 21 µM | 0.0562 µM | 20.3 µM | 0.0833 µM | 0.671 µM | 0.0165 µM | 0.0614 µM | 0.0414 µM | 20.5 µM |
| O=C(NCCO)c1cc2c(cn1)[nH]c1ccccc12 | – | > 100 µM | – | > 100 µM | – | > 100 µM | – | > 100 µM | – | > 100 µM | – | 43.9 µM | – | > 100 µM | – | > 100 µM | – | > 100 µM | – | > 100 µM |
| CN(C)c1ncnc2c1Cc1ccccc1C(=O)N2C | – | > 100 µM | – | > 100 µM | – | > 100 µM | – | > 100 µM | – | > 100 µM | – | > 100 µM | – | > 100 µM | – | > 100 µM | – | > 100 µM | – | > 100 µM |
| C[C@H](N)C(=O)N[C@@H]1[C@H]2C(=C(O)C[C@@H](O)[C@@H]2O)C(=O)O[C@]1(C)C(Cl)Cl | 0.221 µM | 6.6 µM and 3 µM | 0.454 µM | 9.36 µM and 1.94 µM | 0.108 µM and 0.087 µM | 2.25 µM and 1.58 µM | 0.258 µM | 1.49 µM and 0.507 µM | – | 0.828 µM and 1.08 µM | – | 1.64 µM and 1.33 µM | 0.282 µM | 1.69 µM and 1.3 µM | 0.242 µM | 6.02 µM and 1.72 µM | 0.223 µM | 1.19 µM and 0.736 µM | – | 1.31 µM |
| NC(=O)/C(=C\c1ccncc1)c1cccc2ccccc12 | – | > 100 µM | – | > 100 µM | – | > 100 µM | – | > 100 µM | – | > 100 µM | – | > 100 µM | – | > 100 µM | – | > 100 µM | – | > 100 µM | – | > 100 µM |
